#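 1) Cells in 96-well plates. 2) Compound, 48 h, 5 concentrations. 3) Linear interpolation between surrounding doses. 4) Unreached endpoint = highest concentration. GI50 is the concentration that inhibits growth by half. Definition used: TGI = concentration required for complete inhibition of growth.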
# Legend:
# Assay in all cases: NCI anticancer screen, dose series, 48 h
# NCI-H23 lung = test system: NCI-H23 lung
# NCI-H460 lung = test system: NCI-H460 lung
# NCI-H522 lung = test system: NCI-H522 lung
# NCI/ADR-RES ovarian = test system: NCI/ADR-RES ovarian
# OVCAR-3 ovarian = test system: OVCAR-3 ovarian
# OVCAR-4 ovarian = test system: OVCAR-4 ovarian
# OVCAR-5 ovarian = test system: OVCAR-5 ovarian
# OVCAR-8 ovarian = test system: OVCAR-8 ovarian
# PC-3 prostate = test system: PC-3 prostate
# RPMI-8226 leukemia = test system: RPMI-8226 leukemia
# RXF 393 renal = test system: RXF 393 renal
# SF-268 CNS = test system: SF-268 CNS
# SF-295 CNS = test system: SF-295 CNS
# SF-539 CNS = test system: SF-539 CNS
# SK-MEL-2 melanoma = test system: SK-MEL-2 melanoma
# SK-MEL-28 melanoma = test system: SK-MEL-28 melanoma
# SK-MEL-5 melanoma = test system: SK-MEL-5 melanoma
# SK-OV-3 ovarian = test system: SK-OV-3 ovarian
# SN12C renal = test system: SN12C renal
# SNB-19 CNS = test system: SNB-19 CNS
# SNB-75 CNS = test system: SNB-75 CNS
# SR leukemia = test system: SR leukemia
# SW-620 colon = test system: SW-620 colon
# T-47D breast = test system: T-47D breast
# TK-10 renal = test system: TK-10 renal
# U251 CNS = test system: U251 CNS
# UACC-257 melanoma = test system: UACC-257 melanoma
# UACC-62 melanoma = test system: UACC-62 melanoma
# UO-31 renal = test system: UO-31 renal
smiles,measurement,setting,value
O=C(Nc1ccc(I)cc1F)c1cc(Br)ccc1O,GI50,NCI-H23 lung,472 nM
same,TGI,NCI-H23 lung,3.34 µM
same,GI50,NCI-H460 lung,452 nM
same,TGI,NCI-H460 lung,8.05 µM
same,GI50,NCI-H522 lung,348 nM
same,TGI,NCI-H522 lung,4.44 µM
same,GI50,NCI/ADR-RES ovarian,613 nM
same,TGI,NCI/ADR-RES ovarian,4.5 µM
same,GI50,OVCAR-3 ovarian,457 nM
same,TGI,OVCAR-3 ovarian,11.3 µM
same,GI50,OVCAR-4 ovarian,442 nM
same,TGI,OVCAR-4 ovarian,> 23.1 µM
same,GI50,OVCAR-5 ovarian,4.01 µM
same,TGI,OVCAR-5 ovarian,> 100 µM
same,GI50,OVCAR-8 ovarian,830 nM
same,TGI,OVCAR-8 ovarian,> 24.2 µM
same,GI50,PC-3 prostate,1770 nM
same,TGI,PC-3 prostate,7.13 µM
same,GI50,RPMI-8226 leukemia,321 nM
same,TGI,RPMI-8226 leukemia,1630 nM
same,GI50,RXF 393 renal,778 nM
same,TGI,RXF 393 renal,3.6 µM
same,GI50,SF-268 CNS,498 nM
same,TGI,SF-268 CNS,8.07 µM
same,GI50,SF-295 CNS,1730 nM
same,TGI,SF-295 CNS,3.39 µM
same,GI50,SF-539 CNS,583 nM
same,TGI,SF-539 CNS,3.74 µM
same,GI50,SK-MEL-2 melanoma,386 nM
same,TGI,SK-MEL-2 melanoma,2180 nM
same,GI50,SK-MEL-28 melanoma,393 nM
same,TGI,SK-MEL-28 melanoma,2040 nM
same,GI50,SK-MEL-5 melanoma,251 nM
same,TGI,SK-MEL-5 melanoma,714 nM
same,GI50,SK-OV-3 ovarian,681 nM
same,TGI,SK-OV-3 ovarian,2920 nM
same,GI50,SN12C renal,416 nM
same,TGI,SN12C renal,4.09 µM
same,GI50,SNB-19 CNS,410 nM
same,TGI,SNB-19 CNS,> 100 µM
same,GI50,SNB-75 CNS,451 nM
same,TGI,SNB-75 CNS,2230 nM
same,GI50,SR leukemia,564 nM
same,TGI,SR leukemia,> 100 µM
same,GI50,SW-620 colon,849 nM
same,TGI,SW-620 colon,9.47 µM
same,GI50,T-47D breast,353 nM
same,TGI,T-47D breast,2540 nM
same,GI50,TK-10 renal,1620 nM
same,TGI,TK-10 renal,9.3 µM
same,GI50,U251 CNS,754 nM
same,TGI,U251 CNS,> 100 µM
same,GI50,UACC-257 melanoma,707 nM
same,TGI,UACC-257 melanoma,4.29 µM
same,GI50,UACC-62 melanoma,250 nM
same,TGI,UACC-62 melanoma,812 nM
same,GI50,UO-31 renal,346 nM
same,TGI,UO-31 renal,2240 nM

# Reference: PubChem BioAssay (NCI)
